The text below walks through data of patent US9409896B2, “Sustained release pharmaceutical compositions comprising an antibacterial agent” (Melinta Therapeutics, Inc., priority 2010, dated 2016).

The nature of one data set: log P of model compound. In kind it is physicochemical.
A further data set is described as follows: Caco-2 permeability. The format is in vitro ADME. The conditions noted are these: human. For orientation: Caco-2 cells form a polarised layer with tight junctions and transporters.
The nature of the next data set: Solubility. In kind it is physicochemical.
A short description of a further data set: pKa of model compound. The format is physicochemical.
A short description of the next data set: Food effect. The conditions noted are these: in vivo.
Data set [1] is described as follows: Monkey oral bioavailability. The note with it: in vivo, at 20 mg/kg dose.
Data set [2] is described as follows: Polarized light microscopy of drug suspended in buffers with or without sodium chloride. The note with it: in the presence of chloride ion. In kind it is physicochemical. As for the experimental part:
The common ion effect was studied using dissolution and microscopic methods. The microscopic method was conducted with drug suspended in water, pH 1.2, pH 4 and pH 6.5 buffers with and without sodium chloride. The dissolution of the drug and its granulations were studied using three different 2-step dissolution methods which entails the following: Method #1: simple 2-step buffers at pH 4 from 0-30 minutes and at pH 6.5 from 30-90 minutes. Method #2: simple 2-step buffers with the presence of chloride ion in both steps. Method #3: simple buffer at pH 4 with presence of chloride ion from 0-30 minutes; and buffer with bile salts and surfactants at pH 6.5 from 30-90 minutes. The two steps represent fed stomach and intestinal conditions, respectively.
Formulation Preparation Bulk drug powders were wet granulated with and without excipients. Granules were dried and sized through a #18 mesh screen. Polarized Microscopic Observation Microscopic test was conducted with drug suspended in water, pH 1.2, 4, and 6.5 buffers with and without sodium chloride. Dissolution Test: Four dissolution media were tested. Results of these tests are shown in line-graph formats in FIGS. 3-7. Bulk drug powders were wet granulated with and without excipients. […]
An in-vivo dog study was conducted with beagle dogs (wt=12 kg, n=3). […] Serial of plasma samples were collected, extracted, and analyzed by LC/MS/MS. […]

≈ marks a conversion by molar mass, not a printed value. Read-outs that look alike come from different tables or passages of the source.

Take `CC(=O)NC[C@H]1CN(c2ccc(-c3ccc(CNCc4cnn[nH]4)cc3)c(F)c2)C(=O)O1` [model compound, N-[3-(2-fluoro-4′-{[(3H-[1,2,3]triazol-4-ylmethyl)-amino]-methyl}-biphenyl-4-yl)-2-oxo-oxazolidin-5-(S)-ylmethyl]-acetamide]: the logP in “log P of model compound” was determined as 0.7. The Papp in the data set “Caco-2 permeability” was 0.5 ×10⁻⁶ cm/s. Moreover, the solubility in the data set “Solubility” (at pH 6.8, read-out: Intrinsic solubility) is 10 µg/mL (≈ 22.8 µM); in the data set “Solubility” (water, pH 4, water, read-out: Solubility of salt in water) it was 2600 µg/mL; in “Solubility” (water, pH 5.4, water, read-out: Solubility of salt in water), 200 µg/mL; in “Solubility” (water, pH 6.5, water, read-out: Solubility of salt in water), 60 µg/mL. In “pKa of model compound”, this molecule registered a pKa of 6.8. The Positive food effect in the data set “Food effect” turned out to be 4 ×. In data set [1], the bioavailability amounted to 15%. Further, the “microscopic observation of aggregates” value in data set [2] is “formed aggregates in the presence of chloride ion”.

Usually logP stands for a log measure of how a compound divides between an organic and an aqueous phase. As usually defined, the Papp is a coefficient for how fast a substance crosses the barrier. What is called solubility is the concentration that dissolves in the medium under given conditions. As a reminder, the pKa is the pH at which an ionisable group is half protonated. One may read the bioavailability as the share of a dose that reaches the circulation, judged against a reference dose that is usually intravenous.
